The values below come from ChEMBL document CHEMBL4665881, “Pyrroformyl-containing 2,4-diaminopyrimidine derivatives as a new optimization strategy of ALK inhibitors combating mutations” (Bioorg Med Chem, 2020).

Test [1] deals with A549. In words: Antiproliferative activity against human A549 cells assessed as reduction in cell viability incubated for 72 hr by MTT assay. The settings on record: A549, 72 h. A general note: Tetrazolium dyes change colour on reduction, which living cells bring about.
The test system of test [2] is KARPAS-299. In words: Antiproliferative activity against human Karpas299 cells assessed as reduction in cell viability incubated for 72 hrs by MTT assay. The conditions noted are these: KARPAS-299, 72 h.
The test system of test [3] is NCI-H2228. In words: Antiproliferative activity against human H2228 cells assessed as reduction in cell viability incubated for 72 hrs by MTT assay. The test is classed as functional, cell-based. The settings on record: NCI-H2228, 72 h.
The target in test [4] is ALK tyrosine kinase receptor (Homo sapiens, UniProt Q9UM73). As to the kind of experiment: Inhibition of wild-type ALK (unknown origin) incubated for 1 hr.
ALK tyrosine kinase receptor (Homo sapiens, UniProt Q9UM73), sequence (Q9UM73 whole entry): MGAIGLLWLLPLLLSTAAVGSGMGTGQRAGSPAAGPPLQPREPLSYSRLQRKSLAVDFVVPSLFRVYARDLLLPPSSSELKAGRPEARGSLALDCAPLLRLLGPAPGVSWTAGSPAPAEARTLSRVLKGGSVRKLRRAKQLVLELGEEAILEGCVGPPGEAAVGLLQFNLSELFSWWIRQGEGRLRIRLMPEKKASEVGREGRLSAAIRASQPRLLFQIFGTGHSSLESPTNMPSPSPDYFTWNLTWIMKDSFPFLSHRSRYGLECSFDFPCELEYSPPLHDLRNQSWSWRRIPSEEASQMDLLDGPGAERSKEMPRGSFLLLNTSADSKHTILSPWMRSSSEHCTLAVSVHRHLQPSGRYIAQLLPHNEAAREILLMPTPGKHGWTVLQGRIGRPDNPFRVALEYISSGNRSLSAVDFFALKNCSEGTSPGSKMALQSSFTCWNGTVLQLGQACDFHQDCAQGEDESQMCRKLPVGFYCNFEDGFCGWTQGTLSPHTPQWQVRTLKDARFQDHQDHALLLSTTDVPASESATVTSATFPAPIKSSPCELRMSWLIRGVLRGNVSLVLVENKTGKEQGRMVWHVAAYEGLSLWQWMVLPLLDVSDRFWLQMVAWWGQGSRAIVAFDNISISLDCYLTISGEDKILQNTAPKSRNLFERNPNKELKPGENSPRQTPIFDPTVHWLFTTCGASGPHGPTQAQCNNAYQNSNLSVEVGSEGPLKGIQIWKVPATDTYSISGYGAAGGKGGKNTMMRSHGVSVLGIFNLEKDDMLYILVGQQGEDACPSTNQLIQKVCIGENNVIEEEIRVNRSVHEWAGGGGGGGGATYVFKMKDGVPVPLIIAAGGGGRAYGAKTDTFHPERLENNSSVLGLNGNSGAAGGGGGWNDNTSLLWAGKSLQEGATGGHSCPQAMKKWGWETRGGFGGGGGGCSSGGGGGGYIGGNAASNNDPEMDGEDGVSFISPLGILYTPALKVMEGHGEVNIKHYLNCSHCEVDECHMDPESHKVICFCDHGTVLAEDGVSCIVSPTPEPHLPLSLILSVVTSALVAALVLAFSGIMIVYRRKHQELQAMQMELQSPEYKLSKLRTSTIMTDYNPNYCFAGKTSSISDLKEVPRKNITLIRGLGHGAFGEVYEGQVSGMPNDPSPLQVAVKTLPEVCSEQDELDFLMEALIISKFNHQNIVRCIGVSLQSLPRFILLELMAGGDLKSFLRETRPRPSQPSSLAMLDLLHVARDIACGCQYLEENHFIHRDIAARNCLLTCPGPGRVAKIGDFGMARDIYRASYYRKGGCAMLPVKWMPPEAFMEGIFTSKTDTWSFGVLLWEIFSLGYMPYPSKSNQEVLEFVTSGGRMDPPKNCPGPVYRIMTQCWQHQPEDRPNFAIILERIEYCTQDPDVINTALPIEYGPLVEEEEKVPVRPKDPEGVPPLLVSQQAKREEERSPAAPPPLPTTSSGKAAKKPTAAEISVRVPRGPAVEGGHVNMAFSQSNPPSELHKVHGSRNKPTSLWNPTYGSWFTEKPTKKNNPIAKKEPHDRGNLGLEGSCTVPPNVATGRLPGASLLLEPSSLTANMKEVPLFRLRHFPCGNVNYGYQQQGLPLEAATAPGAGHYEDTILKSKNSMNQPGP
Test [5] has as its target ALK tyrosine kinase receptor (Homo sapiens, UniProt Q9UM73, L1196M). In words: Inhibition of ALK L1196M (unknown origin) incubated for 1 hr.

ALK tyrosine kinase receptor (Homo sapiens, UniProt Q9UM73, L1196M), sequence (Q9UM73 19-1620 L1196M limits assumed): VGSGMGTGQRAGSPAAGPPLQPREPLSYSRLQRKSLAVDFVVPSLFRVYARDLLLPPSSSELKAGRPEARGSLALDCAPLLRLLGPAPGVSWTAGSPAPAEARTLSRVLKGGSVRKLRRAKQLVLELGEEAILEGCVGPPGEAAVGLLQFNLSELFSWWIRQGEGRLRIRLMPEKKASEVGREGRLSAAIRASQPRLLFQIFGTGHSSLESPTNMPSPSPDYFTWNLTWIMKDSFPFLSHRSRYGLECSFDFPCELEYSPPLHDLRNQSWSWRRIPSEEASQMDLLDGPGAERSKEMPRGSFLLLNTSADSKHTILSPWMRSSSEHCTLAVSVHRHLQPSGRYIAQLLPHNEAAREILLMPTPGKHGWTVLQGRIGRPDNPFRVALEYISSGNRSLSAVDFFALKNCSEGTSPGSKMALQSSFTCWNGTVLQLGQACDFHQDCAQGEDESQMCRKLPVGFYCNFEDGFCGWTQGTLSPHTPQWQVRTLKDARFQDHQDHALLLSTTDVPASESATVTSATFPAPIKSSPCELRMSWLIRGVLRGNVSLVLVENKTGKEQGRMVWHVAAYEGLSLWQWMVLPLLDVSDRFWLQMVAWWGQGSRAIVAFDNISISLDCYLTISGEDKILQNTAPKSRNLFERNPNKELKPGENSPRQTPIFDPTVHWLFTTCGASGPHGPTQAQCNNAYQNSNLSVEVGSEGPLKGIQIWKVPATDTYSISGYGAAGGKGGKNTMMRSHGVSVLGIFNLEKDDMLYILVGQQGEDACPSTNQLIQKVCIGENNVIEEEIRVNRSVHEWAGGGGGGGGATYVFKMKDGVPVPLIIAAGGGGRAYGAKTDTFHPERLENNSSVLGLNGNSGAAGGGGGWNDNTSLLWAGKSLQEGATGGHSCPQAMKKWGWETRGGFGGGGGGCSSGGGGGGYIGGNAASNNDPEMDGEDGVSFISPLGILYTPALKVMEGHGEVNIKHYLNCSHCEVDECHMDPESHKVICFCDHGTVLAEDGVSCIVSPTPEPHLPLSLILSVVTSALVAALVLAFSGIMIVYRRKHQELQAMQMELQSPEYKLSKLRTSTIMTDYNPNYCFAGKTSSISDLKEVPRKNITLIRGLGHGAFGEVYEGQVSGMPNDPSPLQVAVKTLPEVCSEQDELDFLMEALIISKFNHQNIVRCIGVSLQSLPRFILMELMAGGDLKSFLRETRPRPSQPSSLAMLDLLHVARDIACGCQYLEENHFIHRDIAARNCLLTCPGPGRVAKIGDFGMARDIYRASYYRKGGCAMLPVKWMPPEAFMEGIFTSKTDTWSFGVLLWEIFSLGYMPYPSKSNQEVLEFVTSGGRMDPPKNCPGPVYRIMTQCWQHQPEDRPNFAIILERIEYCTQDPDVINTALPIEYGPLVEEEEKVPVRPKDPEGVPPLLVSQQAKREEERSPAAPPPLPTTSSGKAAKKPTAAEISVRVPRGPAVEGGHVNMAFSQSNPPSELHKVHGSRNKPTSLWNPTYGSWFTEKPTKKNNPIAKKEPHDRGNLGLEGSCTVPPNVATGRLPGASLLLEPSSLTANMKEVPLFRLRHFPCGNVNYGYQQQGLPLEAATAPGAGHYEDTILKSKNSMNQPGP

As usually defined, the IC50 is the concentration at which inhibition is half-maximal. On to `CCN(CC)C(=O)c1cccn1-c1ccc(Nc2ncc(Cl)c(Nc3ccccc3NS(C)(=O)=O)n2)c(OC)c1`, for which the IC50 in test [1] worked out at 970 nM; in test [2], 105 nM; in test [3], 87 nM.

Turning to `CNC(=O)c1ccccc1Nc1nc(Nc2ccc(-n3cccc3C(=O)N3CCC(C)CC3)cc2OC)ncc1Cl`, the IC50 in test [1] is > 10000 nM; in test [2] it was 2310 nM; in test [3], 1070 nM.

As to `COc1cc(-n2cccc2C(=O)N(C)C)ccc1Nc1ncc(Cl)c(Nc2ccccc2NS(C)(=O)=O)n1`, the figures for the IC50 in test [1], in test [2] and in test [3] were > 10000 nM, 78 nM and 54 nM, respectively.

As to `COc1cc(-n2cccc2C(=O)N2CCCC2)ccc1Nc1ncc(Cl)c(Nc2ccccc2NS(C)(=O)=O)n1`, the IC50 turned out to be 4580 nM in test [1], 870 nM in test [2] and 600 nM in test [3].

With `CNC(=O)c1ccccc1Nc1nc(Nc2ccc(-n3cccc3C(=O)N3CCN(C)CC3)cc2OC)ncc1Cl`, the half-maximal inhibitory concentration (IC50) is > 10000 nM in test [1], 90 nM in test [2] and 980 nM in test [3].

Consider `COc1cc(-n2cccc2C(=O)N2CCC(C)CC2)ccc1Nc1ncc(Cl)c(Nc2ccccc2NS(C)(=O)=O)n1`, for which the IC50 was 2200 nM in test [1], 1370 nM in test [2] and 1050 nM in test [3].

For the compound `CNC(=O)c1ccccc1Nc1nc(Nc2ccc(-n3cccc3C(=O)O)cc2OC)ncc1Cl`, the IC50 in test [1] came to 2490 nM; in test [2], 170 nM; in test [3], 87 nM.

Take `COc1cc(-n2cccc2C(=O)N2CCC(O)CC2)ccc1Nc1ncc(Cl)c(Nc2ccccc2NS(C)(=O)=O)n1`: the half-maximal inhibitory concentration (IC50) in test [1] was > 10000 nM; in test [2], 970 nM; in test [3], 660 nM.

Turning to `CNC(=O)c1ccccc1Nc1nc(Nc2ccc(-n3cccc3C(=O)N3CCN(CCO)CC3)cc2OC)ncc1Cl`, the IC50 in test [1] is > 10000 nM; in test [2], 430 nM; in test [3], 1410 nM.

On to `COc1cc(-n2cccc2C(=O)N2CCCCC2)ccc1Nc1ncc(Cl)c(Nc2ccccc2NS(C)(=O)=O)n1`, for which the IC50 was > 10000 nM in test [1], 1040 nM in test [2] and 630 nM in test [3].

Consider `CCN1CCN(C(=O)c2cccn2-c2ccc(Nc3ncc(Cl)c(Nc4ccccc4NS(C)(=O)=O)n3)c(OC)c2)CC1`, for which the IC50 in test [1] is > 10000 nM; in test [2], 1410 nM; in test [3], 1130 nM; in test [4], 8.5 nM; in test [5] it was 11.7 nM.

Turning to `CNC(=O)c1ccccc1Nc1nc(Nc2ccc(-n3cccc3C(=O)N3CCSCC3)cc2OC)ncc1Cl`, the results for the IC50 in test [1], in test [2] and in test [3] were 2180 nM, 1140 nM and 1040 nM, respectively.

On to `CNC(=O)c1ccccc1Nc1nc(Nc2ccc(-n3cccc3C(=O)N(C)C)cc2OC)ncc1Cl`, for which the 50% inhibitory concentration (IC50) in test [1] is 4120 nM; in test [2] it was 1070 nM; in test [3], 89 nM.

Consider `CNC(=O)c1ccccc1Nc1nc(Nc2ccc(-n3cccc3C(=O)NCCO)cc2OC)ncc1Cl`, for which the IC50 in test [1] is > 10000 nM; in test [2] it was 790 nM; in test [3] it was 43 nM; in test [4], 9.6 nM; in test [5], 13.4 nM.

Consider `CNC(=O)c1ccccc1Nc1nc(Nc2ccc(-n3cccc3C(=O)OC)cc2OC)ncc1Cl`, for which the half-inhibitory concentration (IC50) is 8510 nM in test [1], 890 nM in test [2] and 970 nM in test [3].

Regarding `CNC(=O)c1ccccc1Nc1nc(Nc2ccc(-n3cccc3C(=O)N3CCOCC3)cc2OC)ncc1Cl`, the IC50 in test [1] came to 2210 nM; in test [2], 1030 nM; in test [3], 840 nM.

Regarding `CNC(=O)c1ccccc1Nc1nc(Nc2ccc(-n3cccc3C(=O)N3CCC(O)CC3)cc2OC)ncc1Cl`, the IC50 in test [1] is > 10000 nM; in test [2], 970 nM; in test [3], 1070 nM.

With `COc1cc(-n2cccc2C(=O)NCCO)ccc1Nc1ncc(Cl)c(Nc2ccccc2NS(C)(=O)=O)n1`, the IC50 is > 10000 nM in test [1]; 45 nM in test [2]; 34 nM in test [3]; 1.9 nM in test [4]; 3.1 nM in test [5].

In the case of `COc1cc(-n2cccc2C(=O)N2CCOCC2)ccc1Nc1ncc(Cl)c(Nc2ccccc2NS(C)(=O)=O)n1`, the IC50 was determined as 1770 nM in test [1], 640 nM in test [2] and 610 nM in test [3].

Regarding `COc1cc(-n2cccc2C(=O)N2CCSCC2)ccc1Nc1ncc(Cl)c(Nc2ccccc2NS(C)(=O)=O)n1`, the half-inhibitory concentration (IC50) is 1470 nM in test [1]; 930 nM in test [2]; 700 nM in test [3]; 4.5 nM in test [4]; 8.3 nM in test [5].

As to `COC(=O)c1cccn1-c1ccc(Nc2ncc(Cl)c(Nc3ccccc3NS(C)(=O)=O)n2)c(OC)c1`, the IC50 is 2510 nM in test [1], 790 nM in test [2] and 950 nM in test [3].

Turning to `COc1cc(-n2cccc2C(=O)O)ccc1Nc1ncc(Cl)c(Nc2ccccc2NS(C)(=O)=O)n1`, the IC50 was 1060 nM in test [1], 72 nM in test [2] and 64 nM in test [3].

In the case of `CCN(CC)C(=O)c1cccn1-c1ccc(Nc2ncc(Cl)c(Nc3ccccc3C(=O)NC)n2)c(OC)c1`, the half-inhibitory concentration (IC50) amounted to 3490 nM in test [1], 270 nM in test [2] and 540 nM in test [3].

Take `COc1cc(-n2cccc2C(=O)N2CCN(CCO)CC2)ccc1Nc1ncc(Cl)c(Nc2ccccc2NS(C)(=O)=O)n1`: the concentration for half-maximal inhibition (IC50) was > 10000 nM in test [1], 1250 nM in test [2] and 1080 nM in test [3].

`CNC(=O)c1ccccc1Nc1nc(Nc2ccc(-n3cccc3C(=O)N3CCCCC3)cc2OC)ncc1Cl`: the IC50 was > 10000 nM in test [1], 1610 nM in test [2] and 990 nM in test [3].

`COc1cc(-n2cccc2C(=O)N2CCN(C)CC2)ccc1Nc1ncc(Cl)c(Nc2ccccc2NS(C)(=O)=O)n1`: the IC50 in test [1] was > 10000 nM; in test [2] it was 970 nM; in test [3] it was 1050 nM.

On to `CNC(=O)c1ccccc1Nc1nc(Nc2ccc(-n3cccc3C(=O)N3CCCC3)cc2OC)ncc1Cl`, for which the half-inhibitory concentration (IC50) in test [1] was > 10000 nM; in test [2], 840 nM; in test [3], 770 nM.

For `CCN1CCN(C(=O)c2cccn2-c2ccc(Nc3ncc(Cl)c(Nc4ccccc4C(=O)NC)n3)c(OC)c2)CC1`, the concentration for half-maximal inhibition (IC50) stood at 1570 nM in test [1], 940 nM in test [2] and 1270 nM in test [3].

For the compound `COc1cc(-n2cccc2C(=O)N2CC(O)C2)ccc1Nc1ncc(Cl)c(Nc2ccccc2NS(C)(=O)=O)n1`, the IC50 was 2080 nM in test [1], 81 nM in test [2] and 44 nM in test [3].

With `CNC(=O)c1ccccc1Nc1nc(Nc2ccc(-n3cccc3C(=O)N3CC(O)C3)cc2OC)ncc1Cl`, the IC50 in test [1] worked out at 4130 nM; in test [2] it was 740 nM; in test [3], 44 nM.

In the case of `Cc1cc(Nc2ncc(Cl)c(Nc3ccccc3S(=O)(=O)C(C)C)n2)c(OC(C)C)cc1C1CCNCC1` [CERITINIB], the IC50 in test [3] stood at 1070 nM.
